{"source": "patent US7041698B2", "about": "“Hepatitis C virus inhibitors” (Bristol-Myers Squibb Company, priority 2002, dated 2006)", "system": "HCV replicon in Huh7 cells", "test": "HCV replicon cell-based assay", "design": "species or system HCV strain 1B", "conditions": "Hepatitis C virus", "procedure,_shortened": "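Huh7 cells carrying a genotype 1b subgenomic replicon (NS3-NS5B, neo) treated 4 days at 37° C with compound (0.5% DMSO final). NS3 protease activity read in lysates with 10 μM FRET peptide (340/490 nm, kinetic), giving EC50. Confirmed by Taqman qRT-PCR of HCV RNA and a Renilla luciferase replicon.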", "note": "Read-outs that look alike come from different tables or passages of the source.", "data": [{"molecule": "C=CC1C[C@]1(NC(=O)[C@@H]1C[C@@H](OC(=O)Nc2ccccc2-c2ccccc2)CN1C(=O)[C@@H](NC(=O)OC(C)(C)C)C(C)(C)C)C(=O)NS(=O)(=O)C1CC1", "note": "(stereo partly drawn) [Compound 8, BocNH-P3(t-BuGly)-P2(Hyp(O—CO(NH-biphen-2-yl)))-P1(1R,2S VinylAcca)—CONHSO2Cyclopropane]", "values": [{"measurement": "EC50", "setting": "Huh-7, 96 h, HCV replicon, 4 days, read-out: EC50 range", "value": "100 to 1000", "unit": "nM"}, {"measurement": "EC50", "setting": "Huh-7, HCV replicon, read-out: EC50 value in the replicon assay", "value": 284, "unit": "nM"}]}]}
